Common to all, as to type: cell-based
One data set concerns WT HIV-1 (IIIB strain). The data set is described as follows: Anti-HIV-1 activity, protection of infected MT-2 cells (MTT).
A further data set concerns MT-2 human T-cells. The data set is described as follows: Cytotoxicity, inhibition of MT-2 cell growth.
The test system of data set [1] is HIV-1 variant containing the Y181C (Tyr181Cys) mutation. The data set is described as follows: Anti-HIV-1 activity against variant strain in MT-2 cells (MTT). The following applies: Human immunodeficiency virus 1, MT2, read-out: EC50 Y181C.
The test system of data set [2] is HIV-1 variant containing the K103N/Y181C mutations. The data set is described as follows: Anti-HIV-1 activity against double-mutant strain in MT-2 cells (MTT). The following applies: Human immunodeficiency virus 1, MT2, read-out: EC50 K103N/Y181C.
[3] abbreviates: Human immunodeficiency virus 1, IIIB, MT2, running text, read-out: EC50 against WT HIV-1.
Where [4] appears, read: Table 4, catechol diether derivatives, MT-2 cells, read-out: Anti-HIV-1 Activity (EC50).

pEC50: −log10 of the molar value. Read-outs that look alike come from different tables or passages of the source.

Take `Cc1ccc(OCCn2ccc(=O)[nH]c2=O)c(Cc2ccccc2)c1` [Compound 1, 1-(2-(2-benzyl-4-methylphenoxy)ethyl)pyrimidine-2,4(1H,3H)-dione]: the pEC50 in the data set on WT HIV-1 (IIIB strain) (setting [3]) was 5.30.

Regarding `O=c1ccn(CCOc2ccc(Cl)cc2Cc2ccccc2)c(=O)[nH]1` [Compound 5, 1-(2-(2-benzyl-4-chlorophenoxy)ethyl)pyrimidine-2,4(1H,3H)-dione], in the data set on MT-2 human T-cells (human), the CC50 (as a rule, the concentration at which the toxic effect on the cells reaches its halfway point) is 23 µM.

Compound `O=c1ccn(CCOc2ccc(Cl)cc2Cc2ccccc2Cl)c(=O)[nH]1` [Compound 6, 1-(2-(4-chloro-2-(2-chlorobenzyl)phenoxy)ethyl)pyrimidine-2,4(1H,3H)-dione] registered a half-maximal cytotoxic concentration (CC50) in the data set with MT-2 human T-cells (human) of 28 µM.

On to `O=c1ccn(CCOc2ccc(Cl)cc2Cc2cccc(Cl)c2)c(=O)[nH]1` [Compound 7, 1-(2-(4-chloro-2-(3-chlorobenzyl)phenoxy)ethyl)pyrimidine-2,4(1H,3H)-dione], for which the cytotoxic concentration (CC50) in the data set with MT-2 human T-cells (human) was 11 µM.

In turn, `O=c1ccn(CCOc2ccc(Cl)cc2Cc2ccc(Cl)cc2Cl)c(=O)[nH]1` [Compound 8, 1-(2-(4-chloro-2-(2,4-dichlorobenzyl)phenoxy)ethyl)pyrimidine-2,4(1H,3H)-dione] displayed a 50% cytotoxic concentration (CC50) with MT-2 human T-cells (human) of 88 µM.

In the case of `O=c1ccn(CCOc2ccc(Cl)cc2Cc2cc(Cl)cc(Cl)c2)c(=O)[nH]1` [Compound 9, 1-(2-(4-chloro-2-(3,5-dichlorobenzyl)phenoxy)ethyl)pyrimidine-2,4(1H,3H)-dione], half-maximal cytotoxicity in the data set with MT-2 human T-cells (human) (CC50) was put at 10 µM.

With `O=c1ccn(CCOc2ccc(Cl)cc2Cc2cc(Cl)ccc2Cl)c(=O)[nH]1` [Compound 10, 1-(2-(4-chloro-2-(2,5-dichlorobenzyl)phenoxy)ethyl)pyrimidine-2,4(1H,3H)-dione], the CC50 in the data set with MT-2 human T-cells (human) is 15 µM.

In turn, `O=c1ccn(CCOc2ccc(Cl)cc2Cc2c(Cl)cccc2Cl)c(=O)[nH]1` [Compound 11, 1-(2-(4-chloro-2-(2,6-dichlorobenzyl)phenoxy)ethyl)pyrimidine-2,4(1H,3H)-dione] registered a CC50 in the data set on MT-2 human T-cells (human) of 49 µM.

The compound `Cc1cn(CCOc2ccc(Cl)cc2Cc2ccccc2)c(=O)[nH]c1=O` [Compound 12, 1-(2-(2-benzyl-4-chlorophenoxy)ethyl)-5-methylpyrimidine-2,4(1H,3H)-dione] gave a CC50 in the data set with MT-2 human T-cells (human) of 22 µM.

`O=c1[nH]c(=O)n(CCOc2ccc(Cl)cc2Cc2ccccc2)cc1F` [Compound 13, 1-(2-(2-benzyl-4-chlorophenoxy)ethyl)-5-fluoropyrimidine-2,4(1H,3H)-dione] had a CC50 with MT-2 human T-cells (human) of 27 µM.

For `O=c1[nH]c(=O)n(CCOc2ccc(Cl)cc2Cc2ccccc2)cc1Cl` [Compound 14, 1-(2-(2-benzyl-4-chlorophenoxy)ethyl)-5-chloropyrimidine-2,4(1H,3H)-dione], the CC50 with MT-2 human T-cells (human) stood at 21 µM.

Regarding `O=c1ccn(CCOc2cc(Cl)ccc2Cc2ccccc2Cl)c(=O)[nH]1` [Compound 15, 1-(2-(5-chloro-2-(2-chlorobenzyl)phenoxy)ethyl)pyrimidine-2,4(1H,3H)-dione], the CC50 with MT-2 human T-cells (human) is 12 µM.

For the compound `N#Cc1cc(C#N)cc(Oc2cc(Cl)ccc2OCCn2ccc(=O)[nH]c2=O)c1` [Compound 20, 5-(5-chloro-2-(2-(2,4-dioxo-3,4-dihydropyrimidin-1(2H)-yl)ethoxy)phenoxy)isophthalonitrile], the pEC50 in data set [1] is 4.68; in data set [2], 5.66.

In the case of `N#Cc1cccc(Cl)c1Oc1cc(Cl)ccc1OCCn1ccc(=O)[nH]c1=O` [Compound 21, 3-chloro-2-(5-chloro-2-(2-(2,4-dioxo-3,4-dihydropyrimidin-1(2H)-yl)ethoxy)phenoxy)benzonitrile], the cytotoxic concentration (CC50) with MT-2 human T-cells (human) was found to be 50 µM.

As to `N#Cc1cc(Cl)cc(Oc2cc(Cl)ccc2OCCn2ccc(=O)[nH]c2=O)c1` [Compound 22, 3-chloro-5-(5-chloro-2-(2-(2,4-dioxo-3,4-dihydropyrimidin-1(2H)-yl)ethoxy)phenoxy)benzonitrile], the pEC50 in data set [1] is 5.17; in data set [2], 5.92.

As for `N#Cc1ccc(Cl)c(Oc2ccc(Cl)cc2OCCn2ccc(=O)[nH]c2=O)c1` [Compound 23, 4-chloro-3-(4-chloro-2-(2-(2,4-dioxo-3,4-dihydropyrimidin-1(2H)-yl)ethoxy)phenoxy)benzonitrile], half-maximal cytotoxicity with MT-2 human T-cells (human) (CC50) was put at 60 µM.

Turning to `N#Cc1cc(C#N)cc(Oc2ccc(Cl)cc2OCCn2ccc(=O)[nH]c2=O)c1` [Compound 24, 5-(4-chloro-2-(2-(2,4-dioxo-3,4-dihydropyrimidin-1(2H)-yl)ethoxy)phenoxy)isophthalonitrile], in the data set with MT-2 human T-cells (human), the half-maximal cytotoxic concentration (CC50) is above 100 µM.

Turning to `N#Cc1cc(Cl)cc(Oc2ccc(Cl)cc2OCCn2cc(F)c(=O)[nH]c2=O)c1` [Compound 26, 3-chloro-5-(4-chloro-2-(2-(5-fluoro-2,4-dioxo-3,4-dihydropyrimidin-1(2H)-yl)ethoxy)phenoxy)benzonitrile], the values for the pEC50 in data set [1] and in data set [2] were 6.21 and 5.77, respectively.

In the case of `N#Cc1cc(Cl)cc(Oc2ccc(C#N)cc2OCCn2ccc(=O)[nH]c2=O)c1` [Compound 28, 4-(3-chloro-5-cyanophenoxy)-3-(2-(2,4-dioxo-3,4-dihydropyrimidin-1(2H)-yl)ethoxy)benzonitrile], the cytotoxic concentration (CC50) in the data set on MT-2 human T-cells (human) is above 100 µM.

In the data set on MT-2 human T-cells (human), `N#Cc1cc(Cl)cc(Oc2ccc(C#N)cc2OCCn2cc(Cl)c(=O)[nH]c2=O)c1` [Compound 29, 3-(2-(5-chloro-2,4-dioxo-3,4-dihydropyrimidin-1(2H)-yl)ethoxy)-4-(3-chloro-5-cyanophenoxy)benzonitrile] showed a 50% cytotoxic concentration (CC50) of 94 µM.

On to `N#Cc1ccc(Oc2ccccc2Cl)c(OCCn2ccc(=O)[nH]c2=O)c1` [Compound 30, 4-(2-chlorophenoxy)-3-(2-(2,4-dioxo-3,4-dihydropyrimidin-1(2H)-yl)ethoxy)benzonitrile], for which the pEC50 with WT HIV-1 (IIIB strain) (setting [3]) is 6.57. Further, in the data set with MT-2 human T-cells (human), the CC50 is above 100 µM.

On to `N#Cc1ccc(Oc2cc(Cl)ccc2Cl)c(OCCn2ccc(=O)[nH]c2=O)c1` [Compound 31, 4-(2,5-dichlorophenoxy)-3-(2-(2,4-dioxo-3,4-dihydropyrimidin-1(2H)-yl)ethoxy)benzonitrile], for which the pEC50 in the data set with WT HIV-1 (IIIB strain) (setting [3]) was 7.37; in data set [1], 6.04; in data set [2], 5.55.

`N#Cc1ccc(Oc2cc(Cl)cc(Cl)c2)c(OCCn2ccc(=O)[nH]c2=O)c1` [Compound 32, 4-(3,5-dichlorophenoxy)-3-(2-(2,4-dioxo-3,4-dihydropyrimidin-1(2H)-yl)ethoxy)benzonitrile]: the pEC50 was 7.70 in the data set on WT HIV-1 (IIIB strain) (setting [3]), 6.10 in data set [1] and below 4.37 in data set [2].

As to `N#Cc1ccc(Oc2cc(Cl)ccc2Cl)c(OCCc2ccncc2)c1` [Compound 33, 4-(2,5-dichlorophenoxy)-3-(2-(pyridin-4-yl)ethoxy)benzonitrile], in the data set on WT HIV-1 (IIIB strain) (setting [3]), the pEC50 was 6.12.

As to `N#Cc1ccc(Oc2cc(Cl)ccc2Cl)c(OCc2ccncc2)c1` [Compound 34], the pEC50 in the data set with WT HIV-1 (IIIB strain) (setting [3]) was 4.92.

As to `N#Cc1ccc(Oc2cc(Cl)ccc2Cl)c(COCc2ccncc2)c1` [Compound 35, 4-(2,5-dichlorophenoxy)-3-((pyridin-4-ylmethoxy)methyl)benzonitrile], the pEC50 with WT HIV-1 (IIIB strain) (setting [3]) is 5.74.

For the compound `COc1cc(Cl)ccc1Oc1cc(Cl)cc(C#N)c1` [Compound 36, 3-chloro-5-(4-chloro-2-methoxyphenoxy)benzonitrile], the pEC50 in the data set on WT HIV-1 (IIIB strain) (setting [3]) is 5.00.

With `N#C/C=C/c1cccc(Oc2ccc(C#N)cc2OCCn2ccc(=O)[nH]c2=O)c1` [Compound 40, (E)-4-(3-(2-cyanovinyl)phenoxy)-3-(2-(2,4-dioxo-3,4-dihydropyrimidin-1(2H)-yl)ethoxy)benzonitrile], the pEC50 was 7.82 with WT HIV-1 (IIIB strain) (setting [3]), 6.01 in data set [1] and 5.10 in data set [2].

Consider `N#Cc1cc(F)c(Oc2ccccc2Cl)c(OCCn2ccc(=O)[nH]c2=O)c1` [Compound 44, 4-(2-chlorophenoxy)-3-(2-(2,4-dioxo-3,4-dihydropyrimidin-1(2H)-yl)ethoxy)-5-fluorobenzonitrile], for which the pEC50 with WT HIV-1 (IIIB strain) (setting [3]) is 6.80. For the same compound, the CC50 in the data set on MT-2 human T-cells (human) was above 100 µM.

In the case of `O=c1ccn(CCOc2cc(Cl)cc(Cl)c2Oc2ccccc2Cl)c(=O)[nH]1` [Compound 45, 1-(2-(3,5-dichloro-2-(2-chlorophenoxy)phenoxy)ethyl)pyrimidine-2,4(1H,3H)-dione], in the data set with WT HIV-1 (IIIB strain) (setting [3]), the pEC50 is 6.08. In the data set on MT-2 human T-cells (human), this compound returned a CC50 of 13 µM.

Consider `COCCOc1cccc(Oc2ccc(C#N)cc2OCCn2ccc(=O)[nH]c2=O)c1` [Compound 46, 3-(2-(2,4-dioxo-3,4-dihydropyrimidin-1(2H)-yl)ethoxy)-4-(3-(2-methoxyethoxy)phenoxy)benzonitrile], for which the pEC50 in the data set on WT HIV-1 (IIIB strain) (setting [3]) was 6.27. In addition, in the data set on MT-2 human T-cells (human), the half-maximal cytotoxic concentration (CC50) is above 100 µM.

For `N#Cc1ccc(Oc2cccc(OCCCO)c2)c(OCCn2ccc(=O)[nH]c2=O)c1` [Compound 47, 3-(2-(2,4-dioxo-3,4-dihydropyrimidin-1(2H)-yl)ethoxy)-4-(3-(3-hydroxypropoxy)phenoxy)benzonitrile], in the data set on WT HIV-1 (IIIB strain) (setting [3]), the pEC50 was 5.74. This compound came in with a CC50 with MT-2 human T-cells (human) above 100 µM.

Regarding `N#C/C=C/c1cc(F)cc(Oc2ccc(Br)cc2OCCn2ccc(=O)[nH]c2=O)c1` [JLJ511], the pEC50 in the data set with WT HIV-1 (IIIB strain) (setting [4]) was 8.74. The 50% cytotoxic concentration (CC50) in the data set on MT-2 human T-cells came out at 15 µM.

For the compound `N#C/C=C/c1cc(Br)cc(Oc2ccc(Cl)cc2OCCn2ccc(=O)[nH]c2=O)c1` [JLJ518], the pEC50 in the data set on WT HIV-1 (IIIB strain) (setting [4]) is 8.28. Further, the midpoint of cytotoxicity with MT-2 human T-cells, the CC50, lay at 80 µM.

On to `N#C/C=C/c1cc(F)cc(Oc2ccc(OCCN3CCOCC3)cc2OCCn2ccc(=O)[nH]c2=O)c1` [JLJ526], for which the pEC50 in the data set with WT HIV-1 (IIIB strain) (setting [4]) is 6.28. The compound also yielded a CC50 in the data set with MT-2 human T-cells of 27 µM.

`N#C/C=C/c1cc(Cl)cc(Oc2ccc(OCCN3CCOCC3)cc2OCCn2ccc(=O)[nH]c2=O)c1` [JLJ530]: in the data set on WT HIV-1 (IIIB strain) (setting [4]), the pEC50 is 5.96. Moreover, the CC50 in the data set with MT-2 human T-cells stood at 100 µM.

Turning to `N#C/C=C/c1cc(Cl)cc(Oc2ccc(Br)cc2OCCn2ccc(=O)[nH]c2=O)c1` [JLJ531], in the data set on WT HIV-1 (IIIB strain) (setting [4]), the pEC50 is 8.04. Moreover, the midpoint of cytotoxicity in the data set with MT-2 human T-cells, the CC50, lay at 13 µM.

Source of the values: patent US9487476B2, “Catechol diethers as potent anti-HIV agents” (priority 2011, dated 2016).
